A value given as a limit tells only on which side of the number the result lay.

This is an account of results in patent publication US9562035B2, “Benzamide derivative useful as FASN inhibitors for the treatment of cancer” (Janssen Pharmaceutica NV, priority 2013, dated 2017).

Test [1] has as its system A2780 ovarian cells. Nature of the test: A2780 Ovarian Cell Proliferation Assay in Lipid Reduced Medium, without Palmitate. The class given is cell-based. Particulars: Homo sapiens, A2780; lipid reduced medium, without palmitate, 96 h, MTT; read-out: Proliferation A2780 w/o Palmitate pIC50 (converted). An outline of the steps:
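A2780 cells were seeded in 10% FCS medium and switched next day to 10% lipid-reduced serum without palmitate. Compounds at 0.01–30 μM were added with 0.2% DMSO, 0.2% fatty-acid-free BSA and 0.25% ethanol final. After 96 h, MTT absorbance at 544 nm was normalized to plate controls, and IC50/pIC50 came from a 4-parameter logistic fit.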

Test [2] deals with A2780 ovarian cells. Nature of the test: A2780 Ovarian Cell Proliferation Assay in Lipid Reduced Medium, with Palmitate (control). The class given is cell-based. Particulars: Homo sapiens, A2780; lipid reduced medium, 25 μM palmitate, 96 h, MTT; read-out: Proliferation A2780 with Palmitate pIC50 (converted). An outline of the steps:
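Read-out was MTT absorbance at 544 nm after 96 h at 37 °C. Cells grown overnight in RPMI1640/10% FCS were moved to 10% lipid-reduced serum with compound plus palmitate (final 25 μM, 0.2% fatty-acid-free BSA, 0.2% DMSO). IC50 came from least-squares curve fitting, expressed as −log(IC50).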

In test [3] the target is T1, hFASN enzyme (full length) (Homo sapiens, UniProt P49327).
T1 construct: 10 μL hFASN enzyme (full length, 300 ng, purified in house); made in house
Nature of the test: Fatty Acid Synthase (FASN) Inhibition Scintillation Proximity Assay. The class given is biochemical. Particulars: for IC50: mean where tested more than once, ~ = standard error of pIC50 larger than 0.5; for inhibition at 10 µM: read-out: FASN % Effect @1E−05M. An outline of the steps:
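Eight compound concentrations (0.01–30 μM) tested in pH 7.5 phosphate buffer with DTT; human full-length enzyme converted [3H]-acetyl-CoA plus malonyl-CoA, with NADPH, over 60 min at room temperature. Hydrophobic [3H]-palmitate detected by bead proximity scintillation imaging; control-normalised data fitted for IC50/pIC50.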

Test [4] deals with T2, FASN Keto-reductase Domain (Homo sapiens, UniProt P49327).
T2 construct: 10 μL hFASN enzyme (full length, 300 ng, purified in house) and 360 μM NADPH; made in house
Nature of the test: Fatty Acid Synthase Keto-Reductase Domain (FASN KR) Inhibition. Particulars: mean where tested more than once; read-out: FASN K-R Domain pIC50 (converted). The class given is biochemical. The method in brief:
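Keto-reductase activity followed as NADPH consumption (A340 drop between 0 and 20 min, room temperature) using in-house full-length hFASN, 360 μM NADPH and ethyl acetoacetate substrate (180 mM stock), pH 7.5 phosphate buffer.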

T1 sequence (P49327 whole entry): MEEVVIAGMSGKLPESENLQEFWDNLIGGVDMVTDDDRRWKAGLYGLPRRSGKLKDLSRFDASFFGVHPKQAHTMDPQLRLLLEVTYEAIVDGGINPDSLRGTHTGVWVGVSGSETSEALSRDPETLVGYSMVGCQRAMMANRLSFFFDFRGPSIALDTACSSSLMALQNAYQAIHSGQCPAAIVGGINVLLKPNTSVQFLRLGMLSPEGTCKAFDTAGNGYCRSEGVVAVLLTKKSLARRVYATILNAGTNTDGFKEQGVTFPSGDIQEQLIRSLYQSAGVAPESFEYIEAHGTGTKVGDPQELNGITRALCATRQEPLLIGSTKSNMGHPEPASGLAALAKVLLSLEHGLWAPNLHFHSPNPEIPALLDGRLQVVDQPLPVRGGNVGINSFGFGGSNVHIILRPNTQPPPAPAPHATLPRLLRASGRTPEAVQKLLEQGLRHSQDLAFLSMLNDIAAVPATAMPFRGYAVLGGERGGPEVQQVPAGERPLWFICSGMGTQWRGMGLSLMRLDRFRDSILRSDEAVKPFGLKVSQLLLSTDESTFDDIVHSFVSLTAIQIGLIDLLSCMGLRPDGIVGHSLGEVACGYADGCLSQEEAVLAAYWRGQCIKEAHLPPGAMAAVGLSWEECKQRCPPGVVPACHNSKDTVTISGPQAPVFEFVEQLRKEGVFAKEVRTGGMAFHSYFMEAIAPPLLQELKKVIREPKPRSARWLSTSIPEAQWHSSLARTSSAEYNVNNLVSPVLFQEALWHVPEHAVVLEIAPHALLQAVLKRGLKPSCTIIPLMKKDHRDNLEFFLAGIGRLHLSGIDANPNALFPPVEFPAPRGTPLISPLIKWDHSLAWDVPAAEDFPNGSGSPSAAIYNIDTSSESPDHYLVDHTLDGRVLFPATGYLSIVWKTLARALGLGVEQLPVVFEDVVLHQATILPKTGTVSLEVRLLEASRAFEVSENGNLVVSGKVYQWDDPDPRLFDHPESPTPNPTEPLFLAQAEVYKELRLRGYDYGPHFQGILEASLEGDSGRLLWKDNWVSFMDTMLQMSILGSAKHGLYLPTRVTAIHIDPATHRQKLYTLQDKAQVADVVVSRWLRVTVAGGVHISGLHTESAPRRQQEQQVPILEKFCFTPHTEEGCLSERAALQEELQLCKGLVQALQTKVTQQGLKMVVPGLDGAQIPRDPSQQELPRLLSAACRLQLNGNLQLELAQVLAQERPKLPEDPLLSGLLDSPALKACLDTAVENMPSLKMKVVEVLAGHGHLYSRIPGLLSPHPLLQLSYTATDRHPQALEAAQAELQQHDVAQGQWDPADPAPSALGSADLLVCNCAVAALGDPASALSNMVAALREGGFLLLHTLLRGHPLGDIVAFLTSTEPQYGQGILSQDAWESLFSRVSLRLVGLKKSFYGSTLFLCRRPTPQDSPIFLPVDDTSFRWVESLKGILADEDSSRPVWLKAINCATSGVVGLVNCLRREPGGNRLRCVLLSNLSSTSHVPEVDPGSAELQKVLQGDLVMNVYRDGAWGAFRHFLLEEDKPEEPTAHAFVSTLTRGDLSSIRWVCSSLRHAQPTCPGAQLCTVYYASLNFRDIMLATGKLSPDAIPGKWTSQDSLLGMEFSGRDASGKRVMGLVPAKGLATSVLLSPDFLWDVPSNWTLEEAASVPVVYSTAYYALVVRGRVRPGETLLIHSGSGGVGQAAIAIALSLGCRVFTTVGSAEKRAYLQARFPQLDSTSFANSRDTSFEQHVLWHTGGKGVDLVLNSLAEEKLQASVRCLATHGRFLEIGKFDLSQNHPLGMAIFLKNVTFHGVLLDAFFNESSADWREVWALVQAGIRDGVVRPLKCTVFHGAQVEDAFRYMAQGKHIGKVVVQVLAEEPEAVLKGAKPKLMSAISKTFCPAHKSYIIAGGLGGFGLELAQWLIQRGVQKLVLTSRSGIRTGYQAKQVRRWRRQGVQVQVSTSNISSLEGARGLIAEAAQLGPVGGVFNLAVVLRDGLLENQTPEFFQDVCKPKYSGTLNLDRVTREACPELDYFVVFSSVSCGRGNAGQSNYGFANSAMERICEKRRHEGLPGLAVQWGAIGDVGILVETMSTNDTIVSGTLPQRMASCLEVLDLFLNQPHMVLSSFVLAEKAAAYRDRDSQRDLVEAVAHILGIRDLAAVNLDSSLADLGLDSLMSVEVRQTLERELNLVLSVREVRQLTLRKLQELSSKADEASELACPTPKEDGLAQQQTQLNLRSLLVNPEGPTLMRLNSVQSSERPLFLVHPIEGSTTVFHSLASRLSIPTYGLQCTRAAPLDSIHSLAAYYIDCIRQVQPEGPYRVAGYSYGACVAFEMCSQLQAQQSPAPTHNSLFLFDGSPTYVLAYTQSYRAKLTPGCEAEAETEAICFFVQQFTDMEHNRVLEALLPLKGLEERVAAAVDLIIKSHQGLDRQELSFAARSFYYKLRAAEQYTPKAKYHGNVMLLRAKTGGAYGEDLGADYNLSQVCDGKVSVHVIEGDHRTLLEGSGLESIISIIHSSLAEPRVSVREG
T2 sequence (P49327 whole entry, the tested form may be a part): as the sequence (P49327 whole entry) above

As for `Cc1ccc(C(=O)N2CCC(c3ccc(-n4ccnc4)cc3)C(C)(C)C2)cc1NC(=O)c1ccc(Cl)nc1` (stereo not shown) [Compound #6, N-(5-(4-(4-(1H-imidazol-1-yl)phenyl)-3,3-dimethylpiperidine-1-carbonyl)-2-methylphenyl)-6-chloronicotinamide], the IC50 was 234 nM in the test with A2780 ovarian cells [1], > 10000 nM with A2780 ovarian cells [2], 61.7 nM in test [3] and 89.1 nM in test [4]. Besides, the inhibition at 10 µM in test [3] came out at 104%.
Turning to `Cc1ccc(C(=O)N2CCC(c3ccc(-n4ccnc4)cc3)CC2)cc1NC(=O)c1ccc(Cl)nc1` [Compound #11, N-(5-(4-(4-(1H-imidazol-1-yl)phenyl)piperidine-1-carbonyl)-2-methylphenyl)-6-chloronicotinamide], the IC50 in the test with A2780 ovarian cells [1] was 56.2 nM; with A2780 ovarian cells [2], > 10000 nM; in test [3], 27.5 nM; in test [4], 49 nM. The inhibition at 10 µM in test [3] is 106%.
The corresponding values for `Cc1ccc(C(=O)N2CCC(c3ccc(-n4ccnc4)cc3)CC2)cc1NC(=O)c1ccc(NC(C)C)nc1` [Compound #15, N-(5-(4-(4-(1H-imidazol-1-yl)phenyl)piperidine-1-carbonyl)-2-methylphenyl)-6-(isopropylamino)nicotinamide] are ~47.9 nM, > 15100 nM, 22.9 nM, 37.2 nM and 109%.
Consider `Cc1ccc(C(=O)N2CC(c3ccc(-c4ccc5cnn(C)c5c4)cc3)C2)cc1NC(=O)c1ccc(NC(C)C)nc1` [Compound #36, 6-(isopropylamino)-N-(2-methyl-5-(3-(4-(1-methyl-1H-indazol-6-yl)phenyl)azetidine-1-carbonyl)phenyl)nicotinamide], for which the IC50 was ~74.1 nM in the test on A2780 ovarian cells [1], 2190 nM with A2780 ovarian cells [2], 43.7 nM in test [3] and 27.5 nM in test [4]. In test [3], the inhibition at 10 µM was 106%.
The corresponding values for `Cc1ccc(C(=O)N2CCC(c3ccc(-n4ccnc4)cc3)C(C)(C)C2)cc1NC(=O)c1ccc(NC(C)C)nc1` (stereo not shown) [Compound #43, N-(5-(4-(4-(1H-imidazol-1-yl)phenyl)-3,3-dimethylpiperidine-1-carbonyl)-2-methylphenyl)-6-(isopropylamino)nicotinamide] are 132 nM, > 10000 nM, 44.7 nM, 69.2 nM and 106%.
With `CC(C)Nc1ccc(C(=O)Nc2cc(C(=O)N3CC(c4ccc(-c5cccnc5)cc4)C3)ccc2Cl)cn1` [Compound #73, N-(2-chloro-5-(3-(4-(pyridin-3-yl)phenyl)azetidine-1-carbonyl)phenyl)-6-(isopropylamino)nicotinamide], the IC50 in the test with A2780 ovarian cells [1] is 148 nM; with A2780 ovarian cells [2] it was 13500 nM; in test [3], 32.4 nM; in test [4], 85.1 nM. For the same compound, the inhibition at 10 µM in test [3] is 93%.
The like results for `CC(C)Nc1ccc(C(=O)Nc2cc(C(=O)N3CC(c4ccc(-c5ccncc5)cc4)C3)ccc2Cl)cn1` [Compound #74, N-(2-chloro-5-(3-(4-(pyridin-4-yl)phenyl)azetidine-1-carbonyl)phenyl)-6-(isopropylamino)nicotinamide] were, in that order, 61.7 nM, 2190 nM, 17.4 nM, 45.7 nM and 107%.
As for `CC(C)Nc1ccc(C(=O)Nc2cc(C(=O)N3CC(c4ccc(-c5ccc6cnccc6c5)cc4)C3)ccc2Cl)cn1` [Compound #75, N-(2-chloro-5-(3-(4-(isoquinolin-6-yl)phenyl)azetidine-1-carbonyl)phenyl)-6-(isopropylamino)nicotinamide], the IC50 with A2780 ovarian cells [1] was 135 nM; in the test with A2780 ovarian cells [2] it was > 15100 nM; in test [3], 53.7 nM; in test [4], 55 nM. For the same compound, the inhibition at 10 µM in test [3] was 92%.
The corresponding values for `COc1ccc(C(=O)Nc2cc(C(=O)N3CC(c4ccc(-c5cnn(C)c5)cc4)C3)ccc2C)cc1` [Compound #83, 4-methoxy-N-(2-methyl-5-(3-(4-(1-methyl-1H-pyrazol-4-yl)phenyl)azetidine-1-carbonyl)phenyl)benzamide] are 74.1 nM, > 10000 nM, 16.2 nM, 45.7 nM and 109%.
On to `Cc1ccc(C(=O)N2CCC(c3ccc(-c4cnn(C)c4)cc3)CC2)cc1NC(=O)C1CC1` [Compound #89, N-(2-methyl-5-(4-(4-(1-methyl-1H-pyrazol-4-yl)phenyl)piperidine-1-carbonyl)phenyl)cyclopropanecarboxamide], for which the IC50 was 151 nM in the test on A2780 ovarian cells [1], > 10000 nM with A2780 ovarian cells [2], 20.4 nM in test [3] and 66.1 nM in test [4]. In addition, the inhibition at 10 µM in test [3] is 103%.
Take `Cc1ccc(C(=O)N2CCC(c3ccc(-c4cnn(C)c4)cc3)CC2)cc1NC(=O)c1ccc(N2CCOCC2)nc1` [Compound #91, N-(2-methyl-5-(4-(4-(1-methyl-1H-pyrazol-4-yl)phenyl)piperidine-1-carbonyl)phenyl)-6-morpholinonicotinamide]: the IC50 in the test with A2780 ovarian cells [1] was 15.8 nM; in the test with A2780 ovarian cells [2] it was > 10000 nM; in test [3] it was 11.2 nM; in test [4], 25.1 nM. In addition, in test [3], the inhibition at 10 µM was 109%.
Consider `Cc1ccc(C(=O)N2CCC(c3ccc(-c4cnn(C)c4)cc3)CC2)cc1NC(=O)c1ccc(Cl)cc1` [Compound #100, 4-chloro-N-(2-methyl-5-(4-(4-(1-methyl-1H-pyrazol-4-yl)phenyl)piperidine-1-carbonyl)phenyl)benzamide], for which the IC50 is 93.3 nM in the test with A2780 ovarian cells [1], > 10000 nM with A2780 ovarian cells [2], 16.2 nM in test [3] and 44.7 nM in test [4]. In addition, the inhibition at 10 µM in test [3] amounted to 111%.
The corresponding values for `Cc1ccc(C(=O)N2CCC(c3ccc(-c4cnn(C)c4)cc3)CC2)cc1NC(=O)c1ccc(N2CCN(C)CC2)nc1` [Compound #112, N-(2-Methyl-5-(4-(4-(1-methyl-1H-pyrazol-4-yl)phenyl)piperidine-1-carbonyl)phenyl)-6-(4-methylpiperazin-1-yl)nicotinamide] are 30.2 nM, 2690 nM, 11.5 nM, 66.1 nM and 104%.
The like results for `Cc1ccc(C(=O)N2CCC(c3ccc(-c4cnn(C)c4)cc3)CC2)cc1NC(=O)C1CCN(C(C)C)CC1` [Compound #182, 1-isopropyl-N-(2-methyl-5-(4-(4-(1-methyl-1H-pyrazol-4-yl)phenyl)piperidine-1-carbonyl)phenyl)piperidine-4-carboxamide] were, in that order, 45.7 nM, > 10000 nM, 27.5 nM, 112 nM and 111%.
With `COc1ccc(C(=O)N2CCC(c3ccc(-c4cnn(C)c4)cc3)CC2)cc1NC(=O)c1ccc(NC(C)C)nc1` [Compound #251, 6-(isopropylamino)-N-(2-methoxy-5-(4-(4-(1-methyl-1H-pyrazol-4-yl)phenyl)piperidine-1-carbonyl)phenyl)nicotinamide], the IC50 with A2780 ovarian cells [1] is 41.7 nM; with A2780 ovarian cells [2] it was 2400 nM; in test [3] it was 28.8 nM; in test [4], 115 nM. Further, the inhibition at 10 µM in test [3] came to 112%.
On to `CCc1ccc(C(=O)N2CCC(c3ccc(-c4cnn(C)c4)cc3)CC2)cc1NC(=O)c1ccc(Cl)nc1` [Compound #255, 6-chloro-N-(2-ethyl-5-(4-(4-(1-methyl-1H-pyrazol-4-yl)phenyl)piperidine-1-carbonyl)phenyl)nicotinamide], for which the IC50 was 39.8 nM in the test with A2780 ovarian cells [1], > 10000 nM with A2780 ovarian cells [2], 24 nM in test [3] and 72.4 nM in test [4]. Besides, in test [3], the inhibition at 10 µM is 113%.
As to `CCc1ccc(C(=O)N2CCC(c3ccc(-c4cnn(C)c4)cc3)CC2)cc1NC(=O)c1ccc(NC(C)C)nc1` [Compound #256, N-(2-ethyl-5-(4-(4-(1-methyl-1H-pyrazol-4-yl)phenyl)piperidine-1-carbonyl)phenyl)-6-(isopropylamino)nicotinamide], the IC50 in the test with A2780 ovarian cells [1] is 8.91 nM; with A2780 ovarian cells [2], 6310 nM; in test [3], 25.7 nM; in test [4] it was 60.3 nM. Further, the inhibition at 10 µM in test [3] was found to be 116%.
